Test results reported in ChEMBL document CHEMBL3431459, “Roche carnitine palmitoyltransferase modulator screening data (supplementary data associated with the publication CHEMBL2216752)”.
Values after ≈ are worked out from the molar mass of the structure shown.

Key:
[1] = target: T1, Carnitine O-palmitoyltransferase 1, muscle isoform (Homo sapiens, UniProt Q92523); assay: SUPPLEMENTARY: Inhibition of Carnitine palmitoyltransferase 1, muscle isoform; parameters: species or system Muscle tissue
T1 sequence (Q92523 whole entry): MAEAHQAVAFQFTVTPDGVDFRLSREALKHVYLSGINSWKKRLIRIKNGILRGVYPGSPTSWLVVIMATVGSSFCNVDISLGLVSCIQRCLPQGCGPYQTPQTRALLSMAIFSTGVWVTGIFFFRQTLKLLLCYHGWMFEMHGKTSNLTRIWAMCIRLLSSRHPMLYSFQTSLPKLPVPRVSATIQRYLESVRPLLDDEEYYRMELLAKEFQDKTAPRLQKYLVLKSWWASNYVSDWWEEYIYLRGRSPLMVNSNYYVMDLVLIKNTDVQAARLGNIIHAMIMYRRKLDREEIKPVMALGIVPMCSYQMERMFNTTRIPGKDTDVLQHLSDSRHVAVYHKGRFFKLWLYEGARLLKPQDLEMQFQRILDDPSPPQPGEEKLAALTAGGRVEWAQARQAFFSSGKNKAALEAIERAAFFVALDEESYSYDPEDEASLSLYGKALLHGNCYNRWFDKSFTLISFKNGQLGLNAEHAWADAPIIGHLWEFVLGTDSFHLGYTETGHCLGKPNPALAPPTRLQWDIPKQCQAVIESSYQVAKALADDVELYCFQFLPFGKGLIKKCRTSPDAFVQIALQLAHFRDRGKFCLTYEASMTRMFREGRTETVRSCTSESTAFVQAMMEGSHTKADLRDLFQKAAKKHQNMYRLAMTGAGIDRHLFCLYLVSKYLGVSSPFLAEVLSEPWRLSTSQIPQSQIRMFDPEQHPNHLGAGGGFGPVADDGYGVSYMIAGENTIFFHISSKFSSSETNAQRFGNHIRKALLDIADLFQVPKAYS

[2] = target: T2, Carnitine O-palmitoyltransferase 2, mitochondrial (Homo sapiens, UniProt P23786); assay: (§1) SUPPLEMENTARY: Inhibition of Carnitine palmitoyltransferase 2
T2 sequence (P23786 whole entry): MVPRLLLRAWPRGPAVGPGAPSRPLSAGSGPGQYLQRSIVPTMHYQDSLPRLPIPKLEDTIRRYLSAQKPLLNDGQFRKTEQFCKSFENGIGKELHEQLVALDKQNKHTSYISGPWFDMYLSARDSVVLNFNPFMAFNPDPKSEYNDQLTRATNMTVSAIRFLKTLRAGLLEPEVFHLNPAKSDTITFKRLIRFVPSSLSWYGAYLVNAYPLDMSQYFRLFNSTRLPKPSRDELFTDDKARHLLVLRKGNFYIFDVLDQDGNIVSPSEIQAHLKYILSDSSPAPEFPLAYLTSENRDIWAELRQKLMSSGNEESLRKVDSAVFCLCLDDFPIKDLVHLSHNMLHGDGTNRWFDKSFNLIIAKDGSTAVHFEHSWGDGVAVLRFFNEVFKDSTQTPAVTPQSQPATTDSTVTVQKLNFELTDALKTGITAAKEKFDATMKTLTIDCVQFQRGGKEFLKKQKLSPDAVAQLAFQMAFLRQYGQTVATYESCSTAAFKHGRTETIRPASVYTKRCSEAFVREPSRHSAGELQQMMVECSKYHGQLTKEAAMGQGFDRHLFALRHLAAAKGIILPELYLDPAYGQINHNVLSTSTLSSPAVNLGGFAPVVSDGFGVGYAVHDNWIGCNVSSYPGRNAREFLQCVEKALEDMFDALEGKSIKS

[3] = target: T3, Carnitine O-palmitoyltransferase 2, mitochondrial (Rattus norvegicus, UniProt P18886); assay: as §1
T3 sequence (P18886 whole entry): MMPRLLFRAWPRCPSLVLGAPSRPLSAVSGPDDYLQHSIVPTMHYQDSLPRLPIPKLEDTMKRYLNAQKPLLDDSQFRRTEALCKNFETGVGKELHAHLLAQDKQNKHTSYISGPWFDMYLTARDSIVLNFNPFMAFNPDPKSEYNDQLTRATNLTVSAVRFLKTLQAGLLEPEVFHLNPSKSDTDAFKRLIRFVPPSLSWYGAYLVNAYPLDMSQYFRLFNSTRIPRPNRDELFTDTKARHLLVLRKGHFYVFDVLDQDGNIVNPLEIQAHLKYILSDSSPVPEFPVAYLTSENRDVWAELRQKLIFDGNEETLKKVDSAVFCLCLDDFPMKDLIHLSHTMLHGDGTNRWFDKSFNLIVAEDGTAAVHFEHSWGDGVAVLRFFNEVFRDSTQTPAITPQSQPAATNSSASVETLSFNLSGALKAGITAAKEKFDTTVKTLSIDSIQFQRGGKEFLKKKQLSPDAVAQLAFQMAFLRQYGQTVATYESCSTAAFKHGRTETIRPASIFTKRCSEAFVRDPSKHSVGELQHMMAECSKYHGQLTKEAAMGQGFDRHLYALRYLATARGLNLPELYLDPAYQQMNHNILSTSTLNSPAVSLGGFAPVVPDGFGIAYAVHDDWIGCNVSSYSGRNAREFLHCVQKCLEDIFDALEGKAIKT

[4] = target: T4, Carnitine O-palmitoyltransferase 1, liver isoform (Homo sapiens, UniProt P50416); assay: (§2) SUPPLEMENTARY: Inhibition of Carnitine palmitoyltransferase 1, liver isoform
T4 sequence (P50416 whole entry): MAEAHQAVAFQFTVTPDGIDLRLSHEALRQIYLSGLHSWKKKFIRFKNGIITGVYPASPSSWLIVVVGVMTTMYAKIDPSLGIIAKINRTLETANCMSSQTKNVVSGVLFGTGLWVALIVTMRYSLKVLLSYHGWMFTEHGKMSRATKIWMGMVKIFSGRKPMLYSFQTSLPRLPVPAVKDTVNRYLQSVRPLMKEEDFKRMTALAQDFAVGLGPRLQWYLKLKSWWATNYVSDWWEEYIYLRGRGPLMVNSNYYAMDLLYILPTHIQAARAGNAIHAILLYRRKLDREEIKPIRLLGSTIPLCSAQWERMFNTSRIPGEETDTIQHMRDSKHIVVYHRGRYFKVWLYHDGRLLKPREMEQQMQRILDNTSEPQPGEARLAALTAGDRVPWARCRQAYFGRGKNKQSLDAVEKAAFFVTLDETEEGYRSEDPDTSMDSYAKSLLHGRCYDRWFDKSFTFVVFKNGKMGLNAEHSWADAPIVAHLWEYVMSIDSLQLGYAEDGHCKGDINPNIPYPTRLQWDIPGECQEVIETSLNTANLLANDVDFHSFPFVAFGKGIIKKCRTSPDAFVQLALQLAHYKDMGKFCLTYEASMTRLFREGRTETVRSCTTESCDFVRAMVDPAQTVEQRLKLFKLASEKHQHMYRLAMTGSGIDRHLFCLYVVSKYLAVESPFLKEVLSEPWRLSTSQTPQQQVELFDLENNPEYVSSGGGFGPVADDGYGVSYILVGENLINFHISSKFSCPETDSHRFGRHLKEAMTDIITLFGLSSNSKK

[5] = target: T5, Carnitine O-palmitoyltransferase 1, liver isoform (Rattus norvegicus, UniProt P32198); assay: as §2
T5 sequence (P32198 whole entry): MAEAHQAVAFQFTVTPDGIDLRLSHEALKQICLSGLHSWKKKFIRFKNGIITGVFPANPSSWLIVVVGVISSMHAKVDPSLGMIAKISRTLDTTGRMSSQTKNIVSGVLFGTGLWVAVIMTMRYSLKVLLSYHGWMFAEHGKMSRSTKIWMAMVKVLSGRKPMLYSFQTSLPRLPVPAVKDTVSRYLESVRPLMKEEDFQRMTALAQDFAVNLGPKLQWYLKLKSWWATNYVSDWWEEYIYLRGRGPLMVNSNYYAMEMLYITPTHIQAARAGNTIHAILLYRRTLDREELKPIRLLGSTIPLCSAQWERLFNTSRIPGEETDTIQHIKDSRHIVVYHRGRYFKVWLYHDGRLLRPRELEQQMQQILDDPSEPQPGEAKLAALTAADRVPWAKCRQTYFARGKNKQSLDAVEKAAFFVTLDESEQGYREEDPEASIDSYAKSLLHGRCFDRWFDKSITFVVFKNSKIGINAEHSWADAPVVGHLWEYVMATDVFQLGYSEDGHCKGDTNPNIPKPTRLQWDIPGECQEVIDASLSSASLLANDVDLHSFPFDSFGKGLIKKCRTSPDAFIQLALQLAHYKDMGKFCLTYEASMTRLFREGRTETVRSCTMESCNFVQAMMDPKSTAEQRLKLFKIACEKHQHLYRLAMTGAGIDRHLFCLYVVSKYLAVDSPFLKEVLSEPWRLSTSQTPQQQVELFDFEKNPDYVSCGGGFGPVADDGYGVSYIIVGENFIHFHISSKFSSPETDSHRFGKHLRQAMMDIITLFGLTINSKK

[6] = SUPPLEMENTARY: Lyophilisation Solubility Assay (LYSA); format: physicochemical; settings: read-out: Kinetic_solubility
[7] = SUPPLEMENTARY: Lipophilicity (log D) Determination by high-throughput shake-flask; format: physicochemical; settings: octanol/water
[8] = SUPPLEMENTARY: PAMPA permeability assay; format: physicochemical; settings: read-out: Permeability

Structure (SMILES) | IC50 [1] [µM] | IC50 [2] [µM] | IC50 [3] [µM] | IC50 [4] [nM] | IC50 [5] [nM] | solubility kinetic [6] [µg/mL] | logD [7] | Papp [8] [×10⁻⁶ cm/s]
O=C([C@H]1CCCCN1C(=O)COc1ccccc1)N1CCc2ccccc2C1 | > 100 | 2.06 | 3.7 | 252 | 596 | 22 (≈ 58.1 µM) | 2.97 | 4.18
CCN(CC)C(=O)c1nc([C@H]2CCCCN2C(=O)COc2ccccc2)no1 | > 100 | > 100 | > 100 | 283 | 936 | 143 (≈ 370 µM) | 2.36 | 11.5
O=C(COc1ccccc1)N1CCCC[C@@H]1c1nc(-c2ccc([N+](=O)[O-])s2)no1 | > 100 | 62.3 | > 100 | 223 | 376 | < 1 | > 3 | 4.39
O=C(COc1ccccc1)N1CCCC[C@@H]1c1nc(-c2ccc([N+](=O)[O-])o2)no1 | > 100 | 9.99 | 35.7 | 68.2 | 297 | 6 (≈ 15.1 µM) | 2.53 | 5.09
O=C(COc1ccccc1)N1CCCC[C@@H]1c1nc(-c2cccs2)n[nH]1 | > 100 | 29.3 | > 100 | 108 | 565 | 101 (≈ 274 µM) | 2.96 | 2.69
O=C(COc1ccccc1)N1CCCC[C@@H]1c1nc(-c2ccccc2F)n[nH]1 | > 100 | 81.4 | > 100 | 106 | 187 | 61.5 (≈ 162 µM) | 3.06 | 4.79
O=C(COc1ccccc1)N1CCCC[C@@H]1c1nc(-c2cccc(F)c2)n[nH]1 | > 100 | > 100 | > 100 | 82.7 | 250 | 23 (≈ 60.5 µM) | 3.5 | 1.45
O=C(COc1ccccc1)N1CCCC[C@@H]1c1nc(-c2ccc(F)c(F)c2)n[nH]1 | > 100 | > 100 | > 100 | 239 | 598 | 77 (≈ 193 µM) | 2.77 | 1.72
COc1ccc(-c2noc([C@H]3CCCCN3C(=O)C#Cc3ccccc3)n2)cc1 | > 100 | > 100 | > 100 | 288 | 500 | < 1 | > 3 | 2.48
COc1ccc(Cl)cc1S(=O)(=O)N1CC(C(=O)O)Oc2ccc(C(=O)Nc3ccccc3)cc21 (stereo not drawn) | 27.3 | > 100 | > 100 | 34.5 | 25.9 | 446 (≈ 887 µM) | -0.45 | 0.03
N#Cc1ccc(C#C[C@H]2CCCCN2C(=O)COc2ccccc2)cc1 | > 100 | > 100 | > 100 | 164 | 190 | 1 (≈ 2.9 µM) | 3.56 | 0.61
